Experiment [1] is described as follows: Luminescence Cell-Based Dose Confirmation HTS to Identify Activators of 5'UTR Stem-Loop Driven Alpha-Synuclein mRNA Translation in H4 Neuroglioblastoma Cells. [Related pubchem assays: 1829 (Project Summary), 1814 (Primary HTS)]. The class given is functional.
Experiment [2] can be described thus: Luminescence Cell-Based Dose Response HTS to Identify Activators of Luciferase Translation or Activity in H4 […] Cells. [Related pubchem assays: 1829 (Project Summary), 1814 (Primary HTS)]. The class given is functional.
In the next experiment the test system is H4. Description: Luminescence Cell-Based Dose Response HTS to Identify Activators of 5'UTR Stem-Loop Driven Prion Protein mRNA Translation in H4 Neuroglioblastoma Cells. [Related pubchem assays: 1829 (Project Summary), 1814 (Primary HTS)]. The class given is functional. The settings on record: Homo sapiens.
A short description of experiment [3]: growth suppression of PTEN-null colon cells, dose response, cell-based, HCT116 PTEN knockout (AID 1047).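 Further: HCT116 colon tumor cells with PTEN knocked out; cells exposed to compound for 60 hours before readout; potency for loss of cell viability measured by luminescence.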 The format is functional.
Experiment [4] is described as follows: growth suppression of beta-catenin-knockout colon cells, dose response, cell-based, HCT116, human colon tumor (AID 1045).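 Further: HCT116 colon tumor cells with beta catenin knocked out; cells exposed to compound for 60 hours.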 The format is functional.
The target of experiment [5] is T1, Heat shock factor protein 1 (Mus musculus, UniProt P38532).
T1 sequence (P38532 whole entry): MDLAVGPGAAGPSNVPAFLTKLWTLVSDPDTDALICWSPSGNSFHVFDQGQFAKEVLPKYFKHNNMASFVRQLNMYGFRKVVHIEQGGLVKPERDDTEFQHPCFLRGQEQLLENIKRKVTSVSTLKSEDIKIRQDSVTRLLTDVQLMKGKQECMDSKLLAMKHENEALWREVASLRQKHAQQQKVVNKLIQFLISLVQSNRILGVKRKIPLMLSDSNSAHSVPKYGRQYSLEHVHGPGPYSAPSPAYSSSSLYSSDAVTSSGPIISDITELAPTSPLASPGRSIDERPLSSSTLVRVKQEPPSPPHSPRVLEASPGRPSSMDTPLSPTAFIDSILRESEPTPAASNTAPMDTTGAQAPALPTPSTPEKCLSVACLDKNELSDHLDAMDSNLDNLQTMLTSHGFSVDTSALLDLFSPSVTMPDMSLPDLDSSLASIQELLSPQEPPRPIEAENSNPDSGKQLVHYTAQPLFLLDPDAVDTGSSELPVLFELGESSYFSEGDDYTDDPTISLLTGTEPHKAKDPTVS
The experiment can be described thus: HSF1 potentiators in luciferase reporter cells, confirmation, cell-based, NIH3T3, luminescence, dose retest (AID 435004).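 Further: stress induced by proteasome inhibitor MG132 added 30 min after compound; luciferase reporter driven by HSF1 response element in NIH3T3 cells; actives raise luminescence as potentiators of the MG132 stress response.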 The class given is functional. For orientation: In a reporter assay the amount or activity of a reporter protein is the signal.

Experiment [6] deals with Streptococcus sp. 'group A'. The experiment can be described thus: growth inhibition of control SK(-) GAS strain, dose response, counter-screen for streptokinase expression inhibitor project, luminescence, kanamycin, BacTiterGlo, confirmation (AID 1900). The format is functional, organism-based.
In a further experiment the target is T2, Streptokinase A (Streptococcus pyogenes serotype M1, UniProt P10520).
T2 sequence (P10520 whole entry): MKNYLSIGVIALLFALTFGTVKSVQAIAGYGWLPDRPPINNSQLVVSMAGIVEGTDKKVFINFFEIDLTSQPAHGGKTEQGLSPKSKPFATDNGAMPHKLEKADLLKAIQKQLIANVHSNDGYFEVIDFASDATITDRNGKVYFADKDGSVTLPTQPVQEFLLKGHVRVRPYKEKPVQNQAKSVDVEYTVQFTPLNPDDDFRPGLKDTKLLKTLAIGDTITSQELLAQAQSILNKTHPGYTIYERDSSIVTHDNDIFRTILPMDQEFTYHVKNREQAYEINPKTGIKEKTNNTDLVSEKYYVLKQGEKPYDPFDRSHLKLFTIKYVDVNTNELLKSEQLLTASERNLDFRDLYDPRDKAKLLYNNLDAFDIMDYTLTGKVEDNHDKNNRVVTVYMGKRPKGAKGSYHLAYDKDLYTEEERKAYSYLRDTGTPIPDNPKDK
Description: S. pyogenes streptokinase expression inhibitors, potency, dose response, plasminogen activation absorbance, OD405 (AID 1914).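 Further: secreted streptokinase activity via plasminogen activation per viability signal from cell pellet.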 The format is functional, Streptococcus pyogenes M1 GAS.

A further experiment deals with Streptococcus. Description: Group A Streptococcus viability loss, dose response, counter-screen for streptokinase expression inhibitor project, luminescence, BacTiterGlo (AID 1915).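 Further: potency for reduction of bacterial viability or growth.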 The format is functional, organism-based. (The purpose of a counterscreen is to sort out artefacts and off-target activity.)
A further experiment concerns the target Cytochrome P450 3A4 (Homo sapiens, UniProt P08684).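 Further: CYP3A4 tested as one member of a cytochrome P450 panel screen.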
The target in the next experiment is Cytochrome P450 2C9 (Homo sapiens, UniProt P11712).
Experiment [7] has as its target T3, Replicative DNA helicase DnaB (Mycobacterium tuberculosis, UniProt P9WMR3).
T3 sequence (P9WMR3 whole entry): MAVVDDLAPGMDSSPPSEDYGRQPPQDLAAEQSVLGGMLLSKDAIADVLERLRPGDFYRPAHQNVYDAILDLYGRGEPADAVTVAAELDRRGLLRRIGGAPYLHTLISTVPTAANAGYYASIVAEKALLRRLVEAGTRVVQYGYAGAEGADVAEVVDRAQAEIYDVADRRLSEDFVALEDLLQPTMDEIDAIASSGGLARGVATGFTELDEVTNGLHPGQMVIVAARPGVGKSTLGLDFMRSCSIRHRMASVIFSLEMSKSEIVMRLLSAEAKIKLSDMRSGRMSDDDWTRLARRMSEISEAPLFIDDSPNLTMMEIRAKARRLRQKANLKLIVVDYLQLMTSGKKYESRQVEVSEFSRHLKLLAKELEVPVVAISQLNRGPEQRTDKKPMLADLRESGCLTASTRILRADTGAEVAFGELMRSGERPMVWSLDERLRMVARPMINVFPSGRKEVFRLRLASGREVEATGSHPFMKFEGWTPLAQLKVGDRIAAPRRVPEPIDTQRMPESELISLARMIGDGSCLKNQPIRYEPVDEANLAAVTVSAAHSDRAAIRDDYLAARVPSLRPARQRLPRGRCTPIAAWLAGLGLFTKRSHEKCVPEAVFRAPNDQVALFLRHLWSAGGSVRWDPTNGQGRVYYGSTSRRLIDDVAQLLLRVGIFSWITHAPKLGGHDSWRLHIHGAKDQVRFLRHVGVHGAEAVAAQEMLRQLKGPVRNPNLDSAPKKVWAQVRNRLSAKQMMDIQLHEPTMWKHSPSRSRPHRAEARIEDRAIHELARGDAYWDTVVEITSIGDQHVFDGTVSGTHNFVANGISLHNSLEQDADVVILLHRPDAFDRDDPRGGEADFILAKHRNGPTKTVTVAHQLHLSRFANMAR
Description: DnaB intein splicing inhibitors, dose response, biochemical, cell-free fluorescence (AID 449749). The format is functional.

The next experiment addresses T4, Protein RecA (Mycobacterium tuberculosis, UniProt P9WHJ3).
T4 sequence (P9WHJ3 whole entry): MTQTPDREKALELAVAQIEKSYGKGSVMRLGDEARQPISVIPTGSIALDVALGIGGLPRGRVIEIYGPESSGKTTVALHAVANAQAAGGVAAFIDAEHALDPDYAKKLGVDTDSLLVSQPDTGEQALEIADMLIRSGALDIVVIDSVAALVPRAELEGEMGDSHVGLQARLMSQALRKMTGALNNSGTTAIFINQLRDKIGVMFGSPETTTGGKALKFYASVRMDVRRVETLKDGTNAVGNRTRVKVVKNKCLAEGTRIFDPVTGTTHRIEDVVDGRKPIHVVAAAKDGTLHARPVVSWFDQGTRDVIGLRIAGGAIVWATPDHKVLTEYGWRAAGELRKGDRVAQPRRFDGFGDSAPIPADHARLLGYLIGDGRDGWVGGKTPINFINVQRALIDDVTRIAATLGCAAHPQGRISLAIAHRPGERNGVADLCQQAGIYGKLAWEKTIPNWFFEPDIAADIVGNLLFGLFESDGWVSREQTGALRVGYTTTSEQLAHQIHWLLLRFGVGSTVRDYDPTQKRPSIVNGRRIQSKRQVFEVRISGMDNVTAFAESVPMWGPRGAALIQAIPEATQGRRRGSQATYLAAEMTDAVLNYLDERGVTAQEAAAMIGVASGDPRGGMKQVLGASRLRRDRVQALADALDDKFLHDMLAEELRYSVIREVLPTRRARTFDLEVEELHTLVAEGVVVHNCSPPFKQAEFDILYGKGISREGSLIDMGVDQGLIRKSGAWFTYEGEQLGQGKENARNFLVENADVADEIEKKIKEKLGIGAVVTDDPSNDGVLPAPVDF
Description: Fluorescence Cell-Free Homogeneous Dose Retest to Identify Inhibitors of RecA-Intein Splicing Activity. [Related pubchem assays (depositor defined):AID2097, AID2223, AID489010, AID492950]. The class given is functional.

In experiment [8] the target is T1, Heat shock factor protein 1. Description: inhibition of MG132-induced HSE-luciferase signal, confirmation, cell-based, NIH3T3, luminescence, dose retest (AID 2382).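 Further: NIH3T3 fibroblasts with HSF1-driven luciferase reporter stressed by proteasome inhibitor MG132; luminescence from HSF1-driven luciferase expression after 8 hours of MG132 stress.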 The class given is functional.

Each structure is given as a SMILES string. Calls of active or inactive are those of the source. For most assays here, no stated cut-off is given here; in the data, actives have a measured EC50 and inactives only a lower limit.

A word on the EC50: it is the midpoint of the concentration-response curve. A word on the AC50: it is the concentration giving half of the maximal activity seen.

Cytochrome P450 2C9, sequence (P11712 whole entry): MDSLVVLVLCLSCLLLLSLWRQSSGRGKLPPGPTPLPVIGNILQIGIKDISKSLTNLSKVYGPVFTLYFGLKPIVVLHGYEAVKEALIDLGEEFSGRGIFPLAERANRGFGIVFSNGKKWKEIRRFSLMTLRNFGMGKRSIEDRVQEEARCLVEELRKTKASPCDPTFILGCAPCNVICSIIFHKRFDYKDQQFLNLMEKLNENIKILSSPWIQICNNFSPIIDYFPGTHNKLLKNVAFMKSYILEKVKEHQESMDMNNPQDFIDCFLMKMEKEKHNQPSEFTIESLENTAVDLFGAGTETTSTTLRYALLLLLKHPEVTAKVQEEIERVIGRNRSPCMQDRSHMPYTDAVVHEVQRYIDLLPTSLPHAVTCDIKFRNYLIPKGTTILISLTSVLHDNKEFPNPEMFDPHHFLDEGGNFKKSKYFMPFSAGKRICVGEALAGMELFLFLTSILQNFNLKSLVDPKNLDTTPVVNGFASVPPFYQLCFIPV
Cytochrome P450 3A4, sequence (P08684 whole entry): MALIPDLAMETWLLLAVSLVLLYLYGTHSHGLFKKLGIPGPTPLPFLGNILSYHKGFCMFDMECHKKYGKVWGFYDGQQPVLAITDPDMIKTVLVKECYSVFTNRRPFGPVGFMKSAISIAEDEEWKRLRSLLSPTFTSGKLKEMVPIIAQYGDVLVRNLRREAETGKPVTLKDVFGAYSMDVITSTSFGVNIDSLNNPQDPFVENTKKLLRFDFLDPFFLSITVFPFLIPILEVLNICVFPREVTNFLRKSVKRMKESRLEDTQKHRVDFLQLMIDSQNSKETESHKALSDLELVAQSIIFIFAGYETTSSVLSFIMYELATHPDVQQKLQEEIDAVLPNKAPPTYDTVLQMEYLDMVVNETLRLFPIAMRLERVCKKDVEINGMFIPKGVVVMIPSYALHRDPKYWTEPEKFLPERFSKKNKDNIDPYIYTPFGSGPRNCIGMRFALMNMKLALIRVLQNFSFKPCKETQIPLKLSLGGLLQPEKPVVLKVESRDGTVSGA

On to `Cc1ccc(Cn2ccnc2C(=O)Nc2ccccc2)cc1`, for which the results for the EC50 in experiment [1] and in experiment [2] were 30.4 µM (active) and 58 µM (active), respectively.

As for `Cc1ccc(C)n1-c1ccc(C(=O)Nc2ccccc2F)cc1`, the EC50 was 11.6 µM (active) in experiment [1], 43.1 µM (active) in experiment [2] and 14.5 µM (active) in the experiment with H4.

On to `Cn1c(SCC(=O)N2CCCCC2)nc2c3ccccc3nc-2c1O`, for which the EC50 in [3] is 22.3 µM (active); in [4], 35.8 µM (active).

Turning to `O=C(O)c1ccc(Cn2cnc3scc(-c4ccccc4)c3c2=O)cc1`, the EC50 is 9.7 µM (active) in experiment [1], > 120 µM (not active) in [2] and > 120 µM (not active) in the experiment with H4.

With `CCCCNC(=O)Cn1nc([N+](=O)[O-])c([N+](=O)[O-])c1C`, the figures for the EC50 (in [1]; in experiment [2]; in the experiment on H4) were > 120 µM (not active), 11.1 µM (active) and 35.2 µM (active), respectively.

With `CCCn1c(SCc2nc(O)c3c(C)c(C)sc3n2)nc2ccccc2c1=O`, the EC50 is 11.8 µM (active) in experiment [3], 12.5 µM (active) in [4] and 71.9 µM (active) in experiment [5].

For `Cc1ccc(C(C(=O)NC2CCCC2)N(C(=O)Cc2cccs2)c2ccc3c(c2)OCCO3)cc1` (stereo not drawn), the EC50 is 46.5 µM (active) in experiment [3] and 62.8 µM (active) in [4].

As for `Cc1ccc(-n2c([S-])c(C(=O)Nc3ccc(OC(F)F)cc3)[n+]3ccc(C(=O)NCCO)cc23)cc1C`, the EC50 was 7.99 µM (active) in experiment [1], > 120 µM (not active) in experiment [2] and 21.3 µM (active) in the experiment with H4.

In the case of `Cc1nc2ccccc2c(=O)n1-c1ccc(Br)cn1`, the EC50 (in [1]; in experiment [2]; with H4) was > 120 µM (not active) in each case.

`C=C1C[C@@H]2[C@H](CC[C@]3(C)C(=O)CC[C@@H]23)[C@@]2(C)C=CC(=O)C=C12` [EXEMESTANE]: the results for the concentration giving a half-maximal response (EC50) (in [1]; in [2]; in the experiment on H4) were 2.79 µM (active), 6.44 µM (active) and 26.7 µM (active), respectively.

Turning to `COc1cccc(-c2cc(C(F)(F)F)nc(N3CCCCC3)n2)c1`, the EC50 in experiment [6] was 5.13 µM (active); on Streptokinase A it was 4.92 µM (active); in the experiment with Streptococcus, 19 µM (active). In addition, the figures for the AC50 on Cytochrome P450 3A4 and at Cytochrome P450 2C9 were 20 µM (inconclusive) and 0.355 µM (inconclusive), respectively.

For the compound `COc1ccc(/N=C2/C(=N\c3ccc(OC)cc3)N(c3ccccc3)C(=S)N2C(=O)c2ccc(Cl)cc2)cc1`, the EC50 in experiment [1] was 41.1 µM (active); in experiment [2], 47.3 µM (active); with H4 it was 18.7 µM (active).

Turning to `Cc1cc(C)nc(Sc2ccc3nnnn3n2)n1`, the EC50 in experiment [1] is 24.7 µM (active); in experiment [2], 22.5 µM (active); in the experiment on H4, 11.3 µM (active).

Turning to `Cc1ccc(N/C([S-])=C(/C(=O)c2ccc(F)cc2)[n+]2ccccc2)cc1`, the AC50 in [7] was > 380 µM (inactive). Moreover, on Protein RecA, the EC50 is 69.7 µM (active).

For `Cc1cccc(N=Nc2c[nH]nc2-c2ccco2)c1`, the EC50 is 29.5 µM (active) in experiment [1], 14.7 µM (active) in experiment [2] and 73.5 µM (active) in the experiment with H4.

For `CC(C)(C)c1ccc(-c2noc(-c3ccc4c(c3)CCO4)n2)cc1`, the EC50 was 0.493 µM (active) in [1]; 2.25 µM (active) in experiment [2]; 5.26 µM (active) in experiment [6]; 0.553 µM (active) in the experiment on H4; 46 µM (active) at Streptokinase A; > 150 µM (not active) with Streptococcus.

As to `CCOC(=O)C/C(C)=N/NC(=O)COc1ccccc1C`, the AC50 in [7] is 4.39 µM (active). In addition, the EC50 at Protein RecA is 2.36 µM (active).

As to `COc1ccc(C(CCN(Cc2ccc(OC)c(OC)c2)C(=O)CCl)c2ccccc2)cc1` (stereo not drawn), the EC50 is 3.19 µM (active) in experiment [8], 3.07 µM (active) in [3], 3 µM (active) in experiment [4] and 0.269 µM (active) at Protein RecA. The half-maximal activity concentration (AC50) in [7] was 1.12 µM (active).

For the compound `Cc1csc(SCC(=O)c2c(N)n(C)c(=O)n(C)c2=O)n1`, the EC50 in experiment [1] was 2.14 µM (active); in experiment [2] it was 29.5 µM (active); in the experiment on H4, > 120 µM (not active).

`Cc1ccc(-c2csc(NC(=O)CSc3n[nH]c4c5ccccc5nc-4n3)n2)cc1`: the EC50 was 24.1 µM (active) in experiment [3] and 21.9 µM (active) in experiment [4].

As for `Cc1ccc(NC2=C(C(=O)Nc3c(C)cc(C)cc3C)C(=N)C(C(=O)Nc3ccc(OC(F)(F)F)cc3)S2)cc1` (stereo not drawn), the concentration giving a half-maximal response (EC50) in experiment [3] was 40 µM (active); in experiment [4] it was 42.8 µM (active).

Source of the values: ChEMBL document CHEMBL1201862, “PubChem BioAssay data set” (2004).
